14 compounds from ChEMBL document CHEMBL1121621, “Synthesis and antiarrhythmic activity of alpha, alpha-bis[(dialkylamino)alkyl]phenylacetamides” (J Med Chem, 1980) can be followed below.

In data set [1] the test system is Canis familiaris. Description: Compound was evaluated for duration of action after oral administration at a dose 25 mg/kg to dog. In kind it is functional, Canis lupus familiaris.
Data set [2] deals with Canis familiaris. Description: Activity duration index was evaluated in mixed-breed or Beagle dogs after intravenous administration. Type of data set: functional, Canis lupus familiaris.
For data set [3], the system named is Canis familiaris. Briefly: Minimum effective dose evaluated in mixed-breed or Beagle dogs after intravenous administration. As to conditions: Canis lupus familiaris, read-out: MED. In kind it is functional.
Data set [4] relates to Canis familiaris. Briefly: Compound was evaluated for maximum reduction of ectopic beats after oral administration at a dose 25 mg/kg to dog. In kind it is functional, Canis lupus familiaris, Heart.
Data set [5] has as its system Canis familiaris. Briefly: Antiarrhythmic activity was evaluated in mixed-breed or Beagle dogs after intravenous administration. Type of data set: functional, Canis lupus familiaris, Heart.
Data set [6] relates to Canis familiaris. Description: Compound was evaluated for onset of action after oral administration at a dose 25 mg/kg to dog. Type of data set: functional, Canis lupus familiaris.
Data set [7] in a line: Therapeutic ratio in mixed-breed or Beagle dogs after intravenous administration of the compound. Type of data set: ADME, Canis lupus familiaris. As to conditions: dog, in vivo, read-out: TR.
A short description of data set [8]: Therapeutic ratio was evaluated in mixed-breed or Beagle dogs after intravenous administration of the compound. As to conditions: dog, in vivo, read-out: TR. Type of data set: ADME, Canis lupus familiaris.
Data set [9] relates to Canis familiaris. Description: Compound was evaluated for maximum reduction of ectopic beats after oral administration at a dose 25 mg/kg to dog; L means lethal. As to conditions: Canis lupus familiaris; Heart. In kind it is functional, organism-based. Further details: dose 25 mg/kg.
Data set [10] has as its system Canis familiaris. Description: Minimum effective dose was evaluated in mixed-breed or Beagle dogs after intravenous administration of the compound. Type of data set: functional. As to conditions: Canis lupus familiaris, read-out: MED.
The subject of data set [11] is Canis familiaris. Briefly: Compound was evaluated for duration of action after oral administration at a dose 15 mg/kg to dog. In kind it is functional, Canis lupus familiaris.
For data set [12], the system named is Canis familiaris. Description: Compound was evaluated for onset of action after oral administration at a dose 15 mg/kg to dog. Type of data set: functional, Canis lupus familiaris.
Data set [13] deals with Canis familiaris. Briefly: Compound was evaluated for maximum reduction of ectopic beats after oral administration at a dose 15 mg/kg to dog. Type of data set: functional, Canis lupus familiaris, Heart.
In data set [14] the test system is Canis familiaris. Description: Compound was evaluated for maximum reduction of ectopic beats after oral administration at a dose 15 mg/kg to dog; IA means inactive. In kind it is functional, organism-based. Further details: dose 15 mg/kg. As to conditions: Canis lupus familiaris; Heart.
Data set [15] relates to Canis familiaris. Description: Compound was evaluated for duration of action after oral administration at a dose 12 mg/kg to dog. In kind it is functional, Canis lupus familiaris.
Data set [16] relates to Canis familiaris. Description: Compound was evaluated for maximum reduction of ectopic beats after oral administration at a dose 12 mg/kg to dog. In kind it is functional, Canis lupus familiaris, Heart.
In data set [17] the test system is Canis familiaris. Briefly: Compound was evaluated for onset of action after oral administration at a dose 12 mg/kg to dog. Type of data set: functional, Canis lupus familiaris.
The test system of data set [18] is Canis familiaris. Description: Compound was evaluated for maximum reduction of ectopic beats after oral administration at a dose 25 mg/kg to dog; IA means inactive. In kind it is functional, organism-based. Also noted: dose 25 mg/kg. As to conditions: Canis lupus familiaris; Heart.

Molecules are shown by their SMILES. Activity calls are given as the source filed them. The calls are words filed in the database; no cut-off is given here. Some results are limits rather than exact numbers.

As for `CC(C)N(CCC(CCN(C(C)C)C(C)C)(C(N)=O)c1ccc(F)cc1)C(C)C`, the Duration with Canis familiaris [1] came out at 147 min. In the data set on Canis familiaris [2], the ADI is listed as 1.19. Further, the minimal effective dose with Canis familiaris [3] is 2 mg/kg. In the data set on Canis familiaris [4], this compound returned a Reduction of 92%. The same compound returned an AR with Canis familiaris [5] of 6.7. Besides, the Onset of action with Canis familiaris [6] is on record as 88 min. For the same compound, the selectivity ratio in data set [7] stood at 12.

The compound `CC(C)N(CCC(CCC1CCCCC1)(C(N)=O)c1ccccc1Cl)C(C)C` (stereo not given) yielded an ADI with Canis familiaris [2] of 3.07. The minimal effective dose in the data set on Canis familiaris [3] came out at 3.5 mg/kg. Also, the selectivity ratio in data set [8] worked out at 6.1. Besides, the Reduction result in the data set on Canis familiaris [9] is on record as “Lethal”.

`CC(C)N(CCC(CCN1CCOCC1)(C(N)=O)c1ccccc1Cl)C(C)C` (stereo not given) registered an ADI with Canis familiaris [2] of 0.49. Further, the AR with Canis familiaris [5] is 3.4. Besides, in the data set on Canis familiaris [10], the minimal effective dose was 11.7 mg/kg.

Compound `CC(C)N(CCC(CCN(C)C1CCCCC1)(C(N)=O)c1ccccc1)C(C)C` (stereo not given) came in with a Duration in the data set with Canis familiaris [11] of 30 min. The same compound returned an ADI in the data set on Canis familiaris [2] of 1.36. Besides, the minimal effective dose with Canis familiaris [3] was 2.7 mg/kg. Also, the AR in the data set on Canis familiaris [5] stood at 7.1. The compound further displayed an Onset of action in the data set with Canis familiaris [12] of 300 min. This compound also returned a Reduction in the data set on Canis familiaris [13] of 69%. In [7], the selectivity ratio came to 4.1.

Compound `CC(C)N(CCC(CCN1CCCCC1)(C(N)=O)c1ccccc1)C(C)C` (stereo not given) displayed a Duration in the data set on Canis familiaris [1] of over 300 min. In the data set with Canis familiaris [2], this compound gave an ADI of 0.45. The minimal effective dose in the data set on Canis familiaris [3] was 5.5 mg/kg. In the data set with Canis familiaris [4], this compound returned a Reduction of 97%. Also, the AR in the data set on Canis familiaris [5] is recorded as 6.1. Further, the Onset of action in the data set with Canis familiaris [6] is recorded as 169 min. Besides, the selectivity ratio in data set [7] amounted to 8.2.

In the data set on Canis familiaris [1], `CC(C)N(CCC(C(N)=O)(c1ccccc1)c1ccccn1)C(C)C` (stereo not given) [DISOPYRAMIDE] showed a Duration of 120 min. Besides, the ADI in the data set with Canis familiaris [2] stood at 0.5. In addition, in the data set with Canis familiaris [3], the minimal effective dose amounted to 6.6 mg/kg. In addition, the Reduction with Canis familiaris [4] is recorded as 79%. The compound also gave an AR in the data set on Canis familiaris [5] of 4.1. For the same compound, the Reduction entry in the data set with Canis familiaris [14] was “inactive”. The same compound gave an Onset of action with Canis familiaris [6] of 172 min. Moreover, the selectivity ratio in [7] amounted to 6.6.

Turning to `CC(C)N(CCC(CCN1CCCCC1)(C(N)=O)c1ccccc1F)C(C)C` (stereo not given), the figures for the Duration with Canis familiaris [1] and in the data set with Canis familiaris [15] were 300 min and 90 min, respectively. Besides, in the data set with Canis familiaris [2], the ADI is 1.47. Besides, in the data set on Canis familiaris [3], the minimal effective dose was 1.8 mg/kg. Besides, the values for the Reduction in the data set with Canis familiaris [4] and in the data set with Canis familiaris [16] were 100% and 67%, respectively. Moreover, the AR with Canis familiaris [5] amounted to 6. Besides, the Onset of action in the data set with Canis familiaris [17] came out at 90 min; in the data set on Canis familiaris [6], 45 min. In addition, in data set [7], the selectivity ratio worked out at 18.

`CC(C)N(CCC(CCN(C)C1CCCCC1)(C(N)=O)c1ccccc1F)C(C)C` (stereo not given) registered a Duration in the data set on Canis familiaris [1] of 150 min. The same compound showed an ADI with Canis familiaris [2] of 0.98. Also, the minimal effective dose in the data set on Canis familiaris [3] is 1.5 mg/kg. In the data set on Canis familiaris [4], this compound returned a Reduction of 67%. Further, the AR with Canis familiaris [5] is given as 6. Further, the Onset of action with Canis familiaris [6] turned out to be 203 min. The selectivity ratio in data set [7] came to 12.7.

Turning to `CC(C)N(CCC(CCN(C(C)C)C(C)C)(C(N)=O)c1ccc(Cl)cc1)C(C)C`, in the data set on Canis familiaris [1], the Duration is reported as over 330 min. The ADI in the data set on Canis familiaris [2] was 0.86. In addition, the minimal effective dose in the data set on Canis familiaris [3] is 3 mg/kg. For the same compound, the Reduction with Canis familiaris [4] was determined as 100%. For the same compound, the AR in the data set with Canis familiaris [5] came out at 6.6. In the data set on Canis familiaris [6], this compound returned an Onset of action of 30 min. The selectivity ratio in data set [7] stood at 2.3.

Consider `CC(C)N(CCC(CCN1CCCCC1)(C(N)=O)c1ccccc1Cl)C(C)C` (stereo not given) [DISOBUTAMIDE], for which the Duration is recorded as 210 min with Canis familiaris [11], over 360 min in the data set with Canis familiaris [1] and 75 min in the data set with Canis familiaris [15]. Further, the ADI in the data set on Canis familiaris [2] came to 1.76. The minimal effective dose in the data set with Canis familiaris [3] worked out at 3.3 mg/kg. The figures for the Max reduction with Canis familiaris [4] and in the data set with Canis familiaris [13] were 100% and 90%, respectively. This compound gave a Reduction with Canis familiaris [16] of 49%. In the data set on Canis familiaris [5], the AR was 8.4. Further, the Onset of action came to 135 min in the data set with Canis familiaris [17], 85 min in the data set with Canis familiaris [12] and 80 min in the data set with Canis familiaris [6]. The selectivity ratio in data set [7] amounted to 8.8.

As for `CC(C)N(CCC(CCN(C(C)C)C(C)C)(C(N)=O)c1ccccc1F)C(C)C`, the Duration in the data set with Canis familiaris [1] is listed as 200 min. In the data set with Canis familiaris [2], this compound yielded an ADI of 1.52. In addition, in the data set with Canis familiaris [3], the minimal effective dose is 3 mg/kg. This compound registered a Reduction in the data set with Canis familiaris [4] of 87%. Besides, the AR in the data set with Canis familiaris [5] is 6.1. The same compound had an Onset of action in the data set on Canis familiaris [6] of 90 min. Also, the selectivity ratio in [7] was determined as 15.

As for `CC(C)N(CCC(CCN(C(C)C)C(C)C)(C(N)=O)c1ccccc1)C(C)C`, in the data set with Canis familiaris [1], the Duration was determined as 200 min. Moreover, the ADI in the data set with Canis familiaris [2] turned out to be 1.31. In addition, in the data set on Canis familiaris [3], the minimal effective dose is 5.5 mg/kg. The same compound registered a Reduction in the data set with Canis familiaris [4] of 89%. For the same compound, the AR with Canis familiaris [5] was determined as 6.5. In the data set with Canis familiaris [6], this compound showed an Onset of action of 200 min. For the same compound, in [7], the selectivity ratio was 3.4.

Turning to `CC(C)N(CCC(CCN1CC2CCC(CC2)C1)(C(N)=O)c1ccccc1)C(C)C` (stereo not given), in the data set with Canis familiaris [2], the ADI is listed as 0.96. Moreover, the minimal effective dose with Canis familiaris [3] worked out at 2.5 mg/kg. The compound also came in with an AR in the data set with Canis familiaris [5] of 7. In addition, the Reduction entry in the data set on Canis familiaris [18] was “inactive”. In addition, in data set [7], the selectivity ratio was found to be 12.5.

Turning to `CC(C)N(CCC(CCN(C(C)C)C(C)C)(C(N)=O)c1ccc(C(C)(C)C)cc1)C(C)C`, the ADI in the data set with Canis familiaris [2] was determined as 1.35. The minimal effective dose in the data set with Canis familiaris [3] is 2 mg/kg. Besides, the selectivity ratio in data set [8] was found to be 4.9.
